Laboratory results as given in patent US11207419B2, “Cadherin-17 specific antibodies and cytotoxic cells for cancer treatment” (ARBELE LIMITED, priority 2016, dated 2021).

B1: Lic3: mouse monoclonal antibody against CDH17, produced using recombinant ectodomain 1-2 of CDH17 as immunogen (antibody, V domains shown)
VH: EVQLVESGGGLVKPGGSLKLSCAASGFSFSDYYMYWVRQAPEKRLEWVASISFDGTYTYYTDRVKGRFTISRDNAKNNLYLQMSSLKSEDTAMYYCARDRPAWFPYWGQGTLVTVSA
VL: DVLMTQIPLSLTVSLGDQASISCRSSQSIVHSNGNTYLEWYLQRPGQSPKLLIYKVSNRFSGVPDRFSGSGSGTDFTLKISRVEAEDLGVYYCFQGSHVPLTFGAGTKLELK
modifications: Lic3 VH; Lic3 VL
notes: mouse monoclonal antibody against CDH17, produced using recombinant ectodomain 1-2 of CDH17 as immunogen
B2: Lic5: in-house mouse monoclonal antibody against CDH17, from hybridoma; VL SEQ ID NO. 29, VH SEQ ID NO. 30 (antibody, V domains shown)
VH: EVQLEESGGGLVKPGGSLKLPCAASGSSFSDFYMYWVRQTPEKRLEWVASISFDGTYTYYTDRVKGRFTISRDNAKNNLYLQMSSLKSEDTAMYYCARDRPAWFPYWGQGTLVTVSAA
VL: DIVLTQTTLSLNVSLGDQASISCRSSQSIVHSNGNTYLEWYLQRPGQSPKLLIYKVSNRFSGVPDRFSGSGSGTDFTLKISRVEAEDLGVYYCFQGSHVPLTFGAGTKLELKRA
notes: in-house mouse monoclonal antibody against CDH17, from hybridoma; 30

Columns and labels:
[1] = system: luciferase-labelled 97L orthotopic liver tumors; assay: Orthotopic tumor xenograft model, tumor growth by live imaging; format: in vivo, nude mice; settings: net photon count relative to IgG control 3 weeks after treatment; 6 mg/kg Lic5, 1 mg/kg drug, intraperitoneal 3 times/week for 3 weeks
Protocol: Animals were housed in individually ventilated cages under a 12-hour light/12-hour dark cycle and with free access to autoclaved water and chow. […] To allow in vivo viewing of the growing orthotopic liver tumors, previously established luciferase-labelled 97L cell line was used. 5×10^6 luciferase-labeled 97L cells were injected subcutaneously into nude mice to allow the growth of the subcutaneous tumors. These subcutaneous tumors were harvested when their sizes reached 200-300 mm3 and used as tumor seeds to establish orthotopic liver tumors in a separate group of nude mice following the standard procedure. […] Every week after treatment, orthotopic tumor growth and metastasis were monitored by live imaging in an IVIS 100 In Vivo Imaging System (Perkin Elmer, Waltham, Mass., USA) after intraperitoneal injection of 150 mg/kg potassium luciferin (Gold Biotechnology, St Louis, Mo., USA). For each measurement, a net photon count was obtained for each tumor. At the end of the experiment, orthotopic tumors were collected and subjected to formalin fixation and paraffin embedding.
The data shown are net photon count relative to the control IgG group obtained 3 weeks after treatment. […] Bars represent mean+SEM.

PLC/PRF/5 (PLC) cells = assay: In vitro cell proliferation MTT assay, PLC cells; format: cell-based, human; settings: for growth inhibition: cultured PLC cells, treatment for 2 days, MTT
Protocol: (§1) A pre-determined number of 97L and PLC cells was seeded onto 96-well culture plates for 1 day. 150 ug/ml mouse IgG (Sigma-Aldrich, St Louis, Mo., USA) as a control for Lic5. After treatment, the proliferation of treated cells was measured using Cell Proliferation Kit I (Roche, Indianapolis, Ind., USA) and as described. In brief, MTT reagent was incubated with the treated cells for 4 hours. Colorimetric signals were then measured after addition of 10% SDS. Independent cell proliferation MTT assays were performed at least twice for result confirmation.
(§2) Before treating orthotopic tumor-bearing mice with the purified Lic5, the anti-tumor effect of Lic5 alone or combined with cisplatin or epirubicin in cultured HCC cell lines in vitro was examined using cell proliferation MTT assay (FIG. 31(A)).

[2] = system: 97L orthotopic liver tumors; assay: Animal survival study, orthotopic liver tumors; format: in vivo, nude mice; settings: for animal survival rate: 8 mg/kg Lic5, 1 mg/kg epirubicin, intraperitoneal 3 times/week for 3 weeks, monitored till 6 weeks after treatment
Protocol: Orthotopic liver tumors were established as above using 97L cells. Orthotopic tumor-bearing mice received the following treatments intraperitoneally 3 times/week for 3 weeks (11-15 mice in each group): (1) 8 mg/kg Lic5; (2) 1 mg/kg cisplatin; (3) 1 mg/kg epirubicin; (4) combined treatment of Lic5 and cisplatin; (5) combined treatment of Lic5 and epirubicin; (6) 8 mg/kg mouse IgG as Lic5 control. Animal survival was continuously monitored till 6 weeks after treatment.
Statistical analyses were performed using SPSS version 19 (SPSS Inc., Chicago, Ill., USA). Data presented in bar chart are expressed as mean ±SD/SEM. Student's t-test was used to calculate the significance of the difference between treatment groups and control group in both cell proliferation MTT assay and animal tumor xenograft experiments. Kaplan-Meier method was employed for survival analyses, while the differences in survival were calculated using log-rank test. A p-value of less than 0.05 was considered statistically significant.

MHCC97-L (97L) cells = assay: In vitro cell proliferation MTT assay, 97L cells; format: cell-based, human; settings: cultured 97L cells; for growth inhibition: treatment for 2 days, MTT
Protocol: as §1, §2

GPC3 = biological target: T1, GPC3 (Homo sapiens, UniProt P51654); settings: phase I study; cited from earlier work
T1 construct: host or cells: HCC patients

[3] = system: tumor cells of HCC and GC; assay: Binding of mAbs to tumor cells; format: cell-based
Text: Tumor antigens derived from clinical samples were selected for the antibodies with specificity directed against the tumor-restricted CDH17 epitopes. […] By lowering and/or varying the antibody affinity (through computational modeling), CDH17-CAR-T cells will have enhanced differential binding to the tumor cell surface.

CDH17 = biological target: T2, CDH17 (Homo sapiens, UniProt Q12864); assay: Immunoreactivity by western blot and immunohistochemistry; format: binding; settings: western blot on 97L cell lysate, immunohistochemistry on human HCC tissue
T2 construct: A single band of about 120 kDa corresponding to the apparent molecular weight of CDH17 was detected in CDH17-expressing 97L cells; endogenous in cells; host or cells: 97L cell lysate (western blot); paraffin-embedded human HCC tissue (immunohistochemistry)
Protocol: An in-house hybridoma cell line secreting Lic5 was generated as described. Hybridoma cells were maintained in DMEM supplemented with 10% FBS and 100 units/ml penicillin and streptomycin. To collect Lic5, hybridoma cells were cultured in serum-free hybridoma-SFM (Life Technologies) for 6 days. The cultured supernatant was collected and purified using Protein G column (Life Technologies). The concentration of the purified Lic5 was estimated using RC DC Protein Assay (Bio-Rad, Hercules, Calif., USA). The purity of Lic5 was assessed by sodium dodecyl sulfate-polyacrylamide gel electrophoresis (SDS-PAGE) under reducing condition, followed by Coomassie Blue staining. Immunoreactivity and specificity of Lic5 were confirmed by western blot using 97L cell lysate and by immunohistochemistry using paraffin-embedded human HCC tissue. […]
Immunohistochemistry was performed on paraffin-embedded orthotopic tumor xenografts and human HCC specimen as described. […] Signals were detected using EnVision+System-HRP Labelled Polymer Anti-mouse (Dako, Carpinteria, Calif., USA) and visualized using Liquid DAB+Substrate Chromogen System (Dako). […]
A single band of about 120 kDa corresponding to the apparent molecular weight of CDH17 was detected in CDH17-expressing 97L cells when Lic5 was used as a primary antibody for western blot (FIG. 30(B)). […]

[4] = system: Oum1 human gastric cancer cells; assay: Internalization by confocal microscopy; format: cell-based; settings: Lic5-FITC, over 30 mins at 37° C.
Protocol: (§3) FIG. 18 presents photographs showing the internalization of Lic5 into human gastric cancer cells as candidate for antibody drug conjugate; (a) photographs showing the staining of DAPI (blue) and Lic5-FITC (green) at indicated times; (b) photographs showing the merged staining of DAPI (blue) and Lic5-FITC (green) at indicated times; Lic5-FITC (green) internalization in Oum1 human gastric cancer cells over 30 mins at 37° C. was determined by confocal microscopy; nucleus was stained with DAPI.
as §3, with “In another aspect, the” for “FIG. 18 presents photographs showing the”, “cells is indicative of a” for “cells as”, “drug conjugate as shown in FIG. 18;” for “drug conjugate;”

[5] = 2 days, compared to mouse IgG-treated cells

Row | Molecule | xenograft growth inhibition [1] [%] | growth inhibition (PLC/PRF/5 (PLC) cells) [%] | growth inhibition (MHCC97-L (97L) cells) [%] | animal survival rate [2] [%] | binding to tumor cells [3] | other results
1 | N.N.[Cl][Pt][Cl] [cisplatin] | 48.6 | 37.6 | 31.6 |  |  | difference in survival compared to control group ([2]; log-rank test versus mouse IgG control): did not reach any statistically significant values
2 | COc1cccc2c1C(=O)c1c(O)c3c(c(O)c1C2=O)C[C@@](O)(C(=O)CO)C[C@@H]3O[C@H]1C[C@H](N)[C@@H](O)[C@H](C)O1 [epirubicin] | 37.9 | 8.1 | 21.9 | 25 |  | 
3 | GC33: anti-GPC3 mAb developed by Chugai |  |  |  |  |  | clinical response (GPC3): no partial or complete response
4 | B1 |  |  |  |  | bind tumor cells of HCC and GC only | 
5 | B2 |  |  |  | 63.6 | bind tumor cells of HCC and GC only | immunoreactivity against CDH17 (CDH17): high immunoreactivity against CDH17; growth of cultured cells, single treatment (PLC/PRF/5 (PLC) cells; [5]): inhibited the growth; growth of cultured cells, single treatment (MHCC97-L (97L) cells; [5]): inhibited the growth; internalization into cells [4]: internalization
